This experiment concerns MDA-MB-468 spheroids with HUVEC/MSC, viability. Briefly: Anticancer human tumor MDA-MB-468 cell line growth inhibition [PI3K].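 As to all read-outs here: spheroids exposed to agents for seven days before readout.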 The settings on record: for viability, T/C: stronger effect = lower value. An excerpt: Combinatorial screen of targeted agents with the PI3K inhibitors inavolisib, alpelisib, duvelisib, and copanlisib in multi-cell type tumor spheroids
A high-throughput screen of multi-cell type tumor spheroids was designed to identify active combinations of targeted small molecules and PI3K pathway inhibitors. Complex spheroids include a stromal component modeled by human endothelial cells (HUVEC) and fibroblasts modeled by human mesenchymal stem cells (MSCs). The concentration ranges selected for each drug and investigational agent were based upon clinically achievable concentrations if the clinical Cmax of the agent was known.
Compounds. The drugs and investigational agents: inavolisib (NSC800729), alpelisib (NSC765974), duvelisib (NSC772469), copanlisib (NSC816437), ipatasertib (NSC767898), afuresertib (NSC778305), talazoparib (NSC767125), sapanisertib (NSC764658), selumetinib (NSC741078), tovorafenib (DAY101, NSC766906), vemurafenib (NSC761431), ravoxertinib (NSC781343), sotorasib (NSC818433), MRTX1133 (NSC 836407), abemaciclib (NSC 768073), palbociclib (NSC758247), venetoclax (NSC 766270), SY5609 (NSC837396), enzalutamide (NSC755605), and darolutamide (NSC825331), were obtained from the National Cancer Institute (NCI) Developmental Therapeutics Program Chemical Repository. The FDA-approved anticancer drug set is available from the NCI Developmental Therapeutics Program. […] The stock solutions were prepared in dimethyl sulfoxide (DMSO, Sigma-Aldrich, St. Louis, MO, cat. D2650) at 800-fold the tested concentration and stored at -70 degrees C prior to their use. All drugs and investigational agents were tested over a range starting from a high concentration at or near the clinical Cmax and decreasing in half-log increments. If the clinical Cmax for an agent had not been determined, the highest concentration tested was 10 microM.
Cell Culture. All cells were maintained in an incubator at 37 degrees C and 5% CO2 with 95% humidity. The PDC lines were cultured according to standard operating procedures established by the NCI PDMR (https://pdmr.cancer.gov/sops/default.htm). All PDCs were thawed and cultured in Matrigel-coated flasks prepared with a working solution of 1X Ham's F-12 nutrient mix, without supplementation (Invitrogen, Waltham, MA, cat. 11765054), 100 U/mL penicillin-streptomycin (Invitrogen, cat. 15140122), and 2.5% Matrigel (Corning Inc., Corning, NY, cat. 354248) for the first three passages. The 354836-022-R-J1-PDC, 475296-252-R-J1-PDC, and 997726-040-R-J2-PDC lines were cultured in 6A media, which includes advanced DMEM/F-12 (Thermo Fisher Scientific, cat. 12634028), 10 mM HEPES (Thermo Fisher Scientific, cat. 15630080), 1X GlutaMAX supplement (Thermo Fisher Scientific, cat. 35050061), 0.1 mg/mL primocin (InvivoGen, San Diego, CA, cat. ant-pm-2), 10% defined fetal bovine serum, heat inactivated (HyClone Laboratories Inc., Logan, UT, cat. SH30070.03HI), 50% L-WRN conditioned media (ATCC, cat. CRL-3276), 1.25 mM N-Acetyl-L-cysteine (Sigma-Aldrich, cat. A9165), 10 mM nicotinamide (Sigma-Aldrich, cat. N0636), 1X B-27 supplement (Thermo Fisher Scientific, cat. 17504044), 1X N-2 supplement (Thermo Fisher Scientific, cat. 17502048), and 10 microM Y-27632 dihydrochloride (Tocris Bioscience, Bristol, United Kingdom, cat. 1254). The 624824-186-R-J2-PDC line was cultured in 6C/Colon 1B media, which includes all 6A media components plus 50 ng/mL human EGF recombinant protein (Thermo Fisher Scientific, cat. PHG0311). […]

pIC50: −log10 of the molar value. “And” between values parts separate entries of the source, which are not always exact repeats. Identical values can stand only once.

What is called pIC50 is −log10 of the IC50, conventionally taken in molar units. By viability, T/C is commonly meant the result in the treated group divided by that in the control group, in per cent. Regarding `CNC(=O)c1ccc(N2C(=S)N(c3ccc(C#N)c(C(F)(F)F)c3)C(=O)C2(C)C)cc1F` + CC(Nc1ncnc2nc[nH]c12)c1cc2cccc(Cl)c2c(=O)n1-c1ccccc1, the pIC50 (curve of first compound, second compound 0.0316 µM) was less than 5.00; the negative logarithm of the IC50 (pIC50) (curve of first compound, second compound 0.1 µM) is less than 5.00; the pIC50 (curve of first compound, second compound 0.316 µM) was less than 5.00; the pIC50 (curve of first compound, second compound 1 µM) is less than 5.00; the pIC50 (curve of first compound, second compound 3.16 µM) is 5.11; the pIC50 (curve of first compound, second compound 10 µM) is more than 7.50. In addition, the viability, T/C by setting is: (second compound 0.0316 µM, first compound 0.0316 µM) 78.9%; (second compound 0.0316 µM, first compound 0.1 µM) 80%; (second compound 0.0316 µM, first compound 0.316 µM) 77.2%; (second compound 0.0316 µM, first compound 1 µM) 90.6%; (second compound 0.0316 µM, first compound 3.16 µM) 89.7%; (second compound 0.0316 µM, first compound 10 µM) 73.1%. Besides, the viability, T/C was 88% (second compound 0.1 µM, first compound 0.0316 µM); 79.8% (second compound 0.1 µM, first compound 0.1 µM); 73.4% (second compound 0.1 µM, first compound 0.316 µM); 91.3% (second compound 0.1 µM, first compound 1 µM); 81.1% (second compound 0.1 µM, first compound 3.16 µM); 63.4% (second compound 0.1 µM, first compound 10 µM). Moreover, the viability, T/C is, setting by setting: (second compound 0.316 µM, first compound 0.0316 µM) 72%; (second compound 0.316 µM, first compound 0.1 µM) 72.5%; (second compound 0.316 µM, first compound 0.316 µM) 71.5%; (second compound 0.316 µM, first compound 1 µM) 77%; (second compound 0.316 µM, first compound 3.16 µM) 70.7%; (second compound 0.316 µM, first compound 10 µM) 61.1%. Further, the viability, T/C by setting is: (second compound 1 µM, first compound 0.0316 µM) 58.2%; (second compound 1 µM, first compound 0.1 µM) 64.5%; (second compound 1 µM, first compound 0.316 µM) 67.4%; (second compound 1 µM, first compound 1 µM) 75%; (second compound 1 µM, first compound 3.16 µM) 55.5%; (second compound 1 µM, first compound 10 µM) 56.3%. Besides, the viability, T/C by setting is: (second compound 3.16 µM, first compound 0.0316 µM) 52.6%; (second compound 3.16 µM, first compound 0.1 µM) 56.3%; (second compound 3.16 µM, first compound 0.316 µM) 53.4%; (second compound 3.16 µM, first compound 1 µM) 57.1%; (second compound 3.16 µM, first compound 3.16 µM) 56.8%; (second compound 3.16 µM, first compound 10 µM) 42.1%. The viability, T/C reads like this: (second compound 10 µM, first compound 0.0316 µM) 40.1%; (second compound 10 µM, first compound 0.1 µM) 35.8%; (second compound 10 µM, first compound 0.316 µM) 36.1%; (second compound 10 µM, first compound 1 µM) 38%; (second compound 10 µM, first compound 3.16 µM) 35.7%; (second compound 10 µM, first compound 10 µM) 26.9%.
With `Cn1nccc1Nc1nccc(-c2ccn(C(CO)c3ccc(Cl)c(F)c3)c(=O)c2)n1` (centres undefined), the viability, T/C by setting is: (compound 0.0316 µM) 92.3% [middle of 4 runs]; (compound 0.1 µM) 92.9% [middle of 4 runs]; (compound 0.316 µM) 101% [middle of 4 runs]; (compound 10 µM) 81.9% [middle of 4 runs]. The pIC50 (curve of compound) was less than 5.00.
Broadly, the IC50 is the point on the concentration scale where inhibition reaches its midpoint. For `Cn1ncc(Cl)c1-c1cc(C(=O)NC(CN)Cc2cccc(F)c2)sc1Cl` (centres undefined), the viability, T/C (compound 0.0316 µM) is 86.1% [middle of 4 runs]; the viability, T/C (compound 0.1 µM) is 69.6% and 66.7% (2×) and 83%; the viability, T/C (compound 0.316 µM) was 53.9% [middle of 4 runs]; the viability, T/C (compound 1 µM) is 34.2% [middle of 4 runs]; the viability, T/C (compound 3.16 µM) was 29.6% [middle of 4 runs]; the viability, T/C (compound 10 µM) is 15.4% [middle of 4 runs]. Moreover, where the note is “curve of compound”, the IC50 is 462 nM [middle of 4 runs].

Source of the values: PubChem BioAssay AID1963960 (Molecular Pharmacology Branch, DTP, NCI, 2024).
